In patent US20250136576A1, “Heterocyclic Compounds and Uses Thereof” (ACEA Therapeutics, Inc., priority 2021, published 2025):

tested on: KM12-luc cells; test: Cell proliferation and growth inhibition assay (CCK-8) in KM12-luc; format: cell-based; settings: KM12-Luc, 72 h, KM12-luc cells, treated with test compounds for 72 hrs, CCK-8 viability; read-out: NTRK IC50 in KM12-luc
Experimental: MV-4-11 and H1975 cells were obtained from the American Type Culture Collection and KM12-luc cells were obtained from JCRB Cell Bank. All cell lines were maintained at 37° C. with 5% C02, in media supplemented with 10% fetal bovine serum and penicillin (100 units/mL) and streptomycin (100 μg/mL). MV-4-11 cells were maintained in Iscove's Modified Dubecco's Medium, H1975 cells were cultured with RPMI 1640 media, and KM12-luc cells were maintained in Dulbecco's Modification of Eagle's Medium. CCK-8 reagent was obtained from Yeasen. Cell proliferation was assessed by CCK-8 assay (Yeasen) per the manufacturer's instructions. […] Cell viability was assayed by incubating the cells with CCK-8 reagent for 1-4 hrs. Absorbance was measured at OD450 using the Beckman DTX880. The data was calculated using GraphPad Prism version 6.01. The IC50 values were fitted using a non-linear regression model with a sigmoidal dose response.

Going from `CCN(CCN(C)C)c1ccc(Nc2nc(-c3cn(C)c4ccccc34)c3cc[nH]c3n2)cc1NC(=O)C(C)C` [Compound 212d, N-(2-((2-(dimethylamino)ethyl)(ethyl)amino)-5-((4-(1-methyl-1H-indol-3-yl)-7H-pyrrolo[2,3-d]pyrimidin-2-yl)amino)phenyl)isobutyramide] to `CCN(CCN(C)C)c1ccc(Nc2nc(-c3cn(C)c4ccccc34)c3cc[nH]c3n2)cc1NCCF` [Compound 212e, N^1-(2-(dimethylamino)ethyl)-N^1-ethyl-N^2-(2-fluoroethyl)-N^4-(4-(1-methyl-1H-indol-3-yl)-7H-pyrrolo[2,3-d]pyrimidin-2-yl)benzene-1,2,4-triamine], the IC50 rises from 93.1 nM to 3360 nM (36-fold).

Compared with `CC(=O)Nc1cc(Nc2nc(-c3c[nH]c4cccc(F)c34)c3cc[nH]c3n2)ccc1N(C)CCN(C)C` [Compound 216, N-(2-((2-(dimethylamino)ethyl)(methyl)amino)-5-((4-(4-fluoro-1H-indol-3-yl)-7H-pyrrolo[2,3-d]pyrimidin-2-yl)amino)phenyl)acetamide], `CC(=O)Nc1cc(Nc2nc(-c3cn(C)c4cccc(F)c34)c3cc[nH]c3n2)ccc1N(C)CCN(C)C` [Compound 218, N-(2-((2-(dimethylamino)ethyl)(methyl)amino)-5-((4-(4-fluoro-1-methyl-1H-indol-3-yl)-7H-pyrrolo[2,3-d]pyrimidin-2-yl)amino)phenyl)acetamide] is 2.1-fold higher in IC50: 49.7 nM for the first, 103 nM for the second. The first is the more potent here.

Going from `CCN(CCN(C)C)c1cc(F)c(Nc2nc(-c3cn(C)c4cccc(F)c34)c3cc[nH]c3n2)cc1NC(C)=O` [Compound 222, N-(2-((2-(dimethylamino)ethyl)(ethyl)amino)-4-fluoro-5-((4-(4-fluoro-1-methyl-1H-indol-3-yl)-7H-pyrrolo[2,3-d]pyrimidin-2-yl)amino)phenyl)acetamide] to `CC(=O)Nc1cc(Nc2nc(-c3cn(C)c4cc(F)c(F)cc34)c3cc[nH]c3n2)ccc1N(C)CCN(C)C` [Compound 237, N-(5-((4-(5,6-difluoro-1-methyl-1H-indol-3-yl)-7H-pyrrolo[2,3-d]pyrimidin-2-yl)amino)-2-((2-(dimethylamino)ethyl)(methyl)amino)phenyl)acetamide], the IC50 falls from 1440 nM to 537 nM (2.7-fold).

`Cc1ccc2[nH]cc(-c3nc(Nc4ccc(N(C)CCN(C)C)c(N(C)C)c4)nc4[nH]ccc34)c2c1` [Compound 239, N^1-(2-(dimethylamino)ethyl)-N^1,N^2,N^2-trimethyl-N^4-(4-(5-methyl-1H-indol-3-yl)-7H-pyrrolo[2,3-d]pyrimidin-2-yl)benzene-1,2,4-triamine] and `CC(=O)Nc1cc(Nc2nc(-c3cn(C)c4ccc(C)cc34)c3cc[nH]c3n2)ccc1N(C)CCN(C)C` [Compound 244, N-(5-((4-(1,5-dimethyl-1H-indol-3-yl)-7H-pyrrolo[2,3-d]pyrimidin-2-yl)amino)-2-((2-(dimethylamino)ethyl)(methyl)amino)phenyl)acetamide] are within 1.5-fold of each other in IC50: 518 nM for the first, 348 nM for the second.

`CCn1cc(-c2nc(Nc3ccc(N(C)CCN(C)C)c(NC(C)=O)c3)nc3[nH]ccc23)c2cc(F)ccc21` [Compound 246, N-(2-((2-(dimethylamino)ethyl)(methyl)amino)-5-((4-(1-ethyl-5-fluoro-1H-indol-3-yl)-7H-pyrrolo[2,3-d]pyrimidin-2-yl)amino)phenyl)acetamide] and `CC(=O)Nc1cc(Nc2nc(-c3cn(C)c4ccccc34)c3c(F)c[nH]c3n2)ccc1N(C)CCN(C)C` [Compound 253, N-(2-((2-(dimethylamino)ethyl)(methyl)amino)-5-((5-fluoro-4-(1-methyl-1H-indol-3-yl)-7H-pyrrolo[2,3-d]pyrimidin-2-yl)amino)phenyl)acetamide] are within 1.5-fold of each other in IC50: 69.9 nM for the first, 97.5 nM for the second.

`CC(=O)Nc1cc(Nc2nc(-c3cn(C)c4ccccc34)c3occc3n2)ccc1N(C)CCN(C)C` [Compound 256a, N-(2-((2-(dimethylamino)ethyl)(methyl)amino)-5-((4-(1-methyl-1H-indol-3-yl)furo[3,2-d]pyrimidin-2-yl)amino)phenyl)acetamide] and `CCN(CCN(C)C)c1ccc(Nc2nc(-c3cn(C)c4ccccc34)c3occc3n2)cc1NC(C)=O` [Compound 256c, N-(2-((2-(dimethylamino)ethyl)(ethyl)amino)-5-((4-(1-methyl-1H-indol-3-yl)furo[3,2-d]pyrimidin-2-yl)amino)phenyl)acetamide] are within 1.5-fold of each other in IC50: 447 nM for the first, 587 nM for the second.

`CC(=O)Nc1cc(Nc2nc(-c3cn(C)c4ccccc34)c3occc3n2)cc(F)c1N(C)CCN(C)C` [Compound 256b, N-(2-((2-(dimethylamino)ethyl) (methyl)amino)-3-fluoro-5-((4-(1-methyl-1H-indol-3-yl)furo[3,2-d]pyrimidin-2-yl)amino)phenyl) acetamide] and `CCN(CCN(C)C)c1c(F)cc(Nc2nc(-c3cn(C)c4ccccc34)c3occc3n2)cc1NC(C)=O` [Compound 256d, N-(2-((2-(dimethylamino)ethyl)(ethyl)amino)-3-fluoro-5-((4-(1-methyl-1H-indol-3-yl)furo[3,2-d]pyrimidin-2-yl)amino)phenyl)acetamide] are within 1.5-fold of each other in IC50: 748 nM for the first, 1000 nM for the second.

`CC(=O)Nc1cc(Nc2nc3c(c(-c4cn(C)c5ccccc45)n2)COCC3)ccc1N(C)CCN(C)C` [Compound 257a, N-(2-((2-(dimethylamino)ethyl)(methyl)amino)-5-((4-(1-methyl-1H-indol-3-yl)-7,8-dihydro-5H-pyrano[4,3-d]pyrimidin-2-yl)amino)phenyl)acetamide] and `CC(=O)Nc1cc(Nc2nc3c(c(-c4cn(C)c5ccccc45)n2)COCC3)cc(F)c1N(C)CCN(C)C` [Compound 257b, N-(2-((2-(dimethylamino)ethyl)(methyl)amino)-3-fluoro-5-((4-(1-methyl-1H-indol-3-yl)-7,8-dihydro-5H-pyrano[4,3-d]pyrimidin-2-yl)amino)phenyl)acetamide] cannot be ordered by IC50: > 10000 nM for the first, > 10000 nM for the second.

same assay, conditions: KM12-Luc, 72 h, read-out: NTRK IC50 in KM12-luc

In order of falling IC50:
1. CCNc1cc(Nc2nc(-c3cn(C)c4ccc(F)cc34)c3cc[nH]c3n2)ccc1N(CC)CCN(C)C [Compound 227d, N^1-(2-(dimethylamino)ethyl)-N^1,N^2-diethyl-N^4-(4-(5-fluoro-1-methyl-1H-indol-3-yl)-7H-pyrrolo[2,3-d]pyrimidin-2-yl)benzene-1,2,4-triamine]  2010 nM
2. CCNc1cc(Nc2nc(-c3cn(C)c4ccc(F)cc34)c3cc[nH]c3n2)ccc1N(C)CCN(C)C [Compound 227b, N^1-(2-(dimethylamino)ethyl)-N^2-ethyl-N^4-(4-(5-fluoro-1-methyl-1H-indol-3-yl)-7H-pyrrolo[2,3-d]pyrimidin-2-yl)-N^1-methylbenzene-1,2,4-triamine]  672 nM
3. CC(=O)Nc1cc(Nc2nc(-c3cn(C)c4ccc(F)cc34)c3cc[nH]c3n2)ccc1N(C)CCN(C)C [Compound 227a, N-(2-((2-(dimethylamino)ethyl)(methyl)amino)-5-((4-(5-fluoro-1-methyl-1H-indol-3-yl)-7H-pyrrolo[2,3-d]pyrimidin-2-yl)amino)phenyl)acetamide]  578 nM
4. CCNc1cc(Nc2nc(-c3cn(C)c4ccccc34)c3cc[nH]c3n2)ccc1N(CC)CCN(C)C [Compound 212f, N^1-(2-(dimethylamino)ethyl)-N^1,N^2-diethyl-N^4-(4-(1-methyl-1H-indol-3-yl)-7H-pyrrolo[2,3-d]pyrimidin-2-yl)benzene-1,2,4-triamine]  546 nM
5. CCNc1cc(Nc2nc(-c3cn(C)c4cc(F)ccc34)c3cc[nH]c3n2)ccc1N(C)CCN(C)C [Compound 232b, N^1-(2-(dimethylamino)ethyl)-N^2-ethyl-N^4-(4-(6-fluoro-1-methyl-1H-indol-3-yl)-7H-pyrrolo[2,3-d]pyrimidin-2-yl)-N^1-methylbenzene-1,2,4-triamine]  492 nM
6. CCN(CCN(C)C)c1ccc(Nc2nc(-c3cn(C)c4ccc(F)cc34)c3cc[nH]c3n2)cc1NC(C)=O [Compound 227c, N-(2-((2-(dimethylamino)ethyl)(ethyl)amino)-5-((4-(5-fluoro-1-methyl-1H-indol-3-yl)-7H-pyrrolo[2,3-d]pyrimidin-2-yl)amino)phenyl)acetamide]  436 nM
7. CC(=O)Nc1cc(Nc2nc(-c3cn(C)c4cc(F)ccc34)c3cc[nH]c3n2)ccc1N(C)CCN(C)C [Compound 232a, N-(2-((2-(dimethylamino)ethyl)(methyl)amino)-5-((4-(6-fluoro-1-methyl-1H-indol-3-yl)-7H-pyrrolo[2,3-d]pyrimidin-2-yl)amino)phenyl)acetamide]  85.5 nM
8. CCN(CCN(C)C)c1ccc(Nc2nc(-c3cn(C)c4ccccc34)c3cc[nH]c3n2)cc1NC(C)=O [Compound 212c, N-(2-((2-(dimethylamino)ethyl)(ethyl)amino)-5-((4-(1-methyl-1H-indol-3-yl)-7H-pyrrolo[2,3-d]pyrimidin-2-yl)amino)phenyl)acetamide]  43.2 nM

same assay, conditions: KM12-luc cells, treated with test compounds for 72 hrs, CCK-8 viability; read-out: NTRK IC50 in KM12-luc

Work on `CC(=O)Nc1cc(Nc2nc(-c3cn(C)nc3C)c3cc[nH]c3n2)ccc1N(C)CCN(C)C` [Compound 255a, N-(5-(4-(1,3-dimethyl-1H-pyrazol-4-yl)-7H-pyrrolo[2,3-d]pyrimidin-2-ylamino)-2-((2-(dimethylamino)ethyl)(methyl)amino)phenyl)acetamide] yielded an IC50 of 246 nM.
With `CC(=O)Nc1cc(Nc2nc(-c3cn(C)nc3C)c3cc[nH]c3n2)ccc1N(C)CCN(C)C` [Compound 255b, N-(5-(4-(1,3-dimethyl-1H-pyrazol-4-yl)-7H-pyrrolo[2,3-d]pyrimidin-2-ylamino)-2-((2-(dimethylamino)ethyl)(methyl)amino)phenyl)acetamide] the IC50 was > 10000 nM.
